From patent US20200339625A1, “NOVEL RADIOMETAL-BINDING COMPOUNDS FOR DIAGNOSIS OR TREATMENT OF PROSTATE SPECIFIC MEMBRANE ANTIGEN-EXPRESSING CANCER” (PROVINCIAL HEALTH SERVICES AUTHORITY, priority 2017, published 2020)

Tested on: mice bearing LNCaP xenografts
Test: Biodistribution of 177Lu-labeled compounds
Format: in vivo
Experimental: 1.17 SPECT/CT Imaging, Biodistribution and Endoradiotherapy Studies
SPECT/CT imaging and biodistribution were performed using NOD-scid IL2Rgammanu^null (NSG) male mice, and the endoradiotherapy study was conducted using NOD.Cg-Rag1^tm1MomII2rg^tm1WjI/SzJ (NRG) male mice. The mice were maintained and the experiments were conducted in according to the guidelines established by the Canadian Council on Animal Care and approved by Animal Ethics Committee of the University of British Columbia. Mice were anesthetized by inhalation with 2% isoflurane in oxygen, and implanted subcutaneously with 1×10^7 LNCaP cells posterior to the left shoulder. Mice were used for studies when the tumor reached 5-8 mm in diameter 5-6 weeks after inoculation.
For biodistribution studies, the mice were injected with ^177Ludabeled PSMA-617 or HTK01169 (2-4 MBq) as described above. At predetermined time points (1, 4, 24, 72, or 120 h post-injection), the mice were euthanized by CO2 inhalation. Blood was withdrawn immediately from the heart, and the organs/tissues of interest were collected. The collected organs/tissues were weighed and counted using an automated gamma counter. For the blocking study, mice were co-injected with ^177Lu-HTK01169 (2-4 MBq) and 50 nmol of the non-radioactive standard, and organs/tissues of interest were collected at 4 h post-injection.

[1] = 4 h post-injection, blocking (co-injection of 50 nmol non-radioactive standard)

## O=C([O-])CN1CCN(CC(=O)[O-])CCN(CC(=O)NCCCC[C@H](NC(=O)[C@H](CCC(=O)O)NC(=O)CCCc2ccc(I)cc2)C(=O)NC[C@H]2CC[C@H](C(=O)N[C@@H](Cc3ccc4ccccc4c3)C(=O)NCCCC[C@H](NC(=O)N[C@@H](CCC(=O)O)C(=O)O)C(=O)O)CC2)CCN(CC(=O)[O-])CC1.[177Lu+3] [^177Lu-HTK01169]
1 h post-injection
  Adrenal glands uptake: 9.94 ± 2.10 % ID/g
  Blood uptake: 16.6 ± 1.85 % ID/g
  Bone uptake: 0.93 ± 0.31 % ID/g
  Brain uptake: 0.18 ± 0.07 % ID/g
  Fat uptake: 3.20 ± 1.03 % ID/g
  Heart uptake: 3.93 ± 0.95 % ID/g
  Intestine uptake: 1.64 ± 0.20 % ID/g
  Kidneys uptake: 51.1 ± 4.07 % ID/g
  Liver uptake: 2.55 ± 0.45 % ID/g
  Lung uptake: 7.11 ± 0.98 % ID/g
  Muscle uptake: 1.39 ± 0.12 % ID/g
  Pancreas uptake: 1.77 ± 0.24 % ID/g
  Seminal uptake: 1.02 ± 0.15 % ID/g
  Spleen uptake: 10.6 ± 4.07 % ID/g
  Stomach uptake: 0.50 ± 0.15 % ID/g
  Testes uptake: 2.14 ± 0.31 % ID/g
  Tumor uptake: 13.4 ± 3.26 % ID/g
  Tumor/blood ratio: 0.81 ± 0.18
  Tumor/kidney ratio: 0.26 ± 0.05
  Tumor/muscle ratio: 9.76 ± 2.65
4 h post-injection
  Adrenal glands uptake: 9.91 ± 2.55 % ID/g
  Blood uptake: 10.2 ± 1.40 % ID/g
  Bone uptake: 0.79 ± 0.30 % ID/g
  Brain uptake: 0.16 ± 0.01 % ID/g
  Fat uptake: 2.95 ± 0.81 % ID/g
  Heart uptake: 2.50 ± 0.54 % ID/g
  Intestine uptake: 1.25 ± 0.17 % ID/g
  Kidneys uptake: 85.7 ± 7.11 % ID/g
  Liver uptake: 1.97 ± 0.05 % ID/g
  Lung uptake: 5.92 ± 0.22 % ID/g
  Muscle uptake: 0.98 ± 0.06 % ID/g
  Pancreas uptake: 1.51 ± 0.28 % ID/g
  Seminal uptake: 1.07 ± 0.62 % ID/g
  Spleen uptake: 8.05 ± 3.62 % ID/g
  Stomach uptake: 0.57 ± 0.11 % ID/g
  Testes uptake: 1.91 ± 0.63 % ID/g
  Tumor/blood ratio: 2.71 ± 0.68
  Tumor/kidney ratio: 0.32 ± 0.07
  Tumor/muscle ratio: 28.0 ± 6.92
[1]
  Adrenal glands uptake: 0.68 ± 0.24 % ID/g
  Blood uptake: 0.96 ± 0.25 % ID/g
  Bone uptake: 0.12 ± 0.04 % ID/g
  Brain uptake: 0.03 ± 0.00 % ID/g
  Fat uptake: 0.25 ± 0.13 % ID/g
  Heart uptake: 0.41 ± 0.07 % ID/g
  Intestine uptake: 0.25 ± 0.10 % ID/g
  Kidneys uptake: 5.50±1.95 % ID/g
  Liver uptake: 0.51 ± 0.08 % ID/g
  Lung uptake: 0.89 ± 0.29 % ID/g
  Muscle uptake: 0.12 ± 0.02 % ID/g
  Pancreas uptake: 0.19 ± 0.02 % ID/g
  Seminal uptake: 0.19 ± 0.13 % ID/g
  Spleen uptake: 0.61 ± 0.17 % ID/g
  Stomach uptake: 0.19 ± 0.10 % ID/g
  Testes uptake: 0.58 ± 0.14 % ID/g
  Tumor uptake: 1.70±0.28 % ID/g
  Tumor/blood ratio: 1.81 ± 0.31
  Tumor/kidney ratio: 0.32 ± 0.06
  Tumor/muscle ratio: 13.7 ± 1.47
24 h post-injection
  Adrenal glands uptake: 4.53 ± 1.10 % ID/g
  Blood uptake: 2.10 ± 0.41 % ID/g
  Bone uptake: 0.26 ± 0.05 % ID/g
  Brain uptake: 0.06 ± 0.01 % ID/g
  Fat uptake: 2.06 ± 0.71 % ID/g
  Heart uptake: 0.83 ± 0.25 % ID/g
  Intestine uptake: 0.45 ± 0.13 % ID/g
  Kidneys uptake: 125 ± 16.4 % ID/g
  Liver uptake: 1.03 ± 0.22 % ID/g
  Lung uptake: 1.98 ± 0.44 % ID/g
  Muscle uptake: 0.39 ± 0.07 % ID/g
  Pancreas uptake: 0.59 ± 0.12 % ID/g
  Seminal uptake: 0.36 ± 0.13 % ID/g
  Spleen uptake: 3.70 ± 1.67 % ID/g
  Stomach uptake: 0.34 ± 0.12 % ID/g
  Testes uptake: 1.19 ± 0.23 % ID/g
  Tumor uptake: 55.9±12.5 % ID/g
  Tumor/blood ratio: 26.7 ± 2.79
  Tumor/kidney ratio: 0.45 ± 0.13
  Tumor/muscle ratio: 142 ± 14.4
72 h post-injection
  Adrenal glands uptake: 1.65 ± 0.46 % ID/g
  Blood uptake: 0.28 ± 0.10 % ID/g
  Bone uptake: 0.11 ± 0.03 % ID/g
  Brain uptake: 0.03 ± 0.00 % ID/g
  Fat uptake: 1.34 ± 0.72 % ID/g
  Heart uptake: 0.28 ± 0.04 % ID/g
  Intestine uptake: 0.13 ± 0.06 % ID/g
  Kidneys uptake: 37.8 ± 18.7 % ID/g
  Liver uptake: 0.46 ± 0.12 % ID/g
  Lung uptake: 0.51 ± 0.17 % ID/g
  Muscle uptake: 0.11 ± 0.02 % ID/g
  Pancreas uptake: 0.15 ± 0.02 % ID/g
  Seminal uptake: 0.12 ± 0.04 % ID/g
  Spleen uptake: 1.13 ± 0.32 % ID/g
  Stomach uptake: 0.17 ± 0.12 % ID/g
  Testes uptake: 0.62 ± 0.11 % ID/g
  Tumor uptake: 53.6 ± 8.06 % ID/g
  Tumor/blood ratio: 204 ± 63.5
  Tumor/kidney ratio: 1.63 ± 0.58
  Tumor/muscle ratio: 519 ± 91.5
120 h post-injection
  Adrenal glands uptake: 0.65 ± 0.21 % ID/g
  Blood uptake: 0.06 ± 0.03 % ID/g
  Bone uptake: 0.08 ± 0.01 % ID/g
  Brain uptake: 0.03 ± 0.00 % ID/g
  Fat uptake: 0.73 ± 0.13 % ID/g
  Heart uptake: 0.16 ± 0.07 % ID/g
  Intestine uptake: 0.10 ± 0.06 % ID/g
  Kidneys uptake: 8.63 ± 2.51 % ID/g
  Liver uptake: 0.34 ± 0.23 % ID/g
  Lung uptake: 0.17 ± 0.04 % ID/g
  Muscle uptake: 0.04 ± 0.01 % ID/g
  Pancreas uptake: 0.07 ± 0.02 % ID/g
  Seminal uptake: 0.08 ± 0.04 % ID/g
  Spleen uptake: 1.18 ± 0.55 % ID/g
  Stomach uptake: 0.21 ± 0.20 % ID/g
  Testes uptake: 0.40 ± 0.05 % ID/g
  Tumor uptake: 56.4±13.2 % ID/g
  Tumor/blood ratio: 1146 ± 722
  Tumor/kidney ratio: 7.12 ± 3.11
  Tumor/muscle ratio: 1708 ± 718
LNCaP tumor xenografts
  fold higher peak tumor uptake than 177Lu-PSMA-617: 3.7 fold
mouse, in vivo
  blood clearance (qualitative): relatively slower than ^177Lu-PSMA-617
Peak over 1-120 h
  peaked tumor uptake: 55.9±12.5 % ID/g
